# Assay: Method for measuring solubility of metal salt
# Settings: 100 g water at pH 7, 20° C., shaken 1 hour
# Protocol: In a flask are placed 100 g of water at pH 7 and 2 g of a metal salt being tested. The flask is tightly closed and shaken in a thermostat at 20° C. for 1 hour. The contents of the flask are filtered to collect the undissolved metal salt, which is dried and weighed. The weight (g) of the undissolved metal salt is subtracted from the original weight (2 g) to obtain the solubility of the metal salt.
structure (smiles),measurement,value
[O]=[Mg] [Magnesium oxide],Solubility,0.0086 g/100 g water
